Results published in US8784849B2, “Hydroxyapatite-targeting poly(ethylene glycol) and related polymers” (Nektar Therapeutics, priority 2000, dated 2014).
One block for each molecule: values may come before it.

Experiments:
[1] = Binding of PEG(2,000)-α-AHPDP-ω-protein to hydroxyapatite in vitro; conditions: 37° C., 5 mM sodium phosphate buffer pH 7.2; for adsorption to hydroxyapatite (in words): 1^1/2 hour incubation; for percentage adsorbed to hydroxyapatite: by 1^1/2 hour incubation
Procedure: Hydroxyapatite (Fast Flow, Fluka, 120 mg) was equilibrated in 1 ml of 5 mM sodium phosphate buffer, pH 7.2 for 24 hours at 37° C. Native lysozyme or the PEG-lysozyme conjugate was mixed with the hydroxyapatite suspension in a 1:1 volume ratio and stirred at 37° C. Samples were taken from the mixture at various time points and analyzed for the percentage of unbound protein or PEG-protein conjugate by gel permeation chromatography. […] All samples had similar protein concentrations.

[2] = Binding of PEG-AHPDP derivatives to hydroxyapatite in vitro; conditions: 37° C., 5 mM sodium phosphate buffer pH 7.2
Procedure: Hydroxyapatite (Fast Flow, Fluka, 12 mg) was equilibrated in 1 ml of 5 mM sodium phosphate buffer, pH 7.2 for 24 hours at 37° C.

[3] = in vivo; cited from earlier work
[4] = Excretion study of 125I-labelled PEG derivatives in mice; assay type: in vivo, Male ICR mice; conditions: for average % [125I] captured (urine and feces, % of total counts injected): 2 μCi i.v. tail vein, n=6; for radiolabeled compound excreted in the urine: 8 hr collection, share of captured radiolabel
Procedure: PEG(2,000)-α-L-tyrosine-ω-AHPDP and mPEG(2,000)-α-L-tyrosine were iodinated using a standard chloramine-T procedure (Bolton, Methods Enzymol. 124: 18-29, 1986). In brief, a 15 μL aliquot of PEG(2,000)-α-L-tyrosine-ω-AHPDP or mPEG(2,000)-α-L-tyrosine (2 μg/μL total weight) was mixed with 50 μL of […] phosphate buffer. To this was added 1 mCi of NaI^125 and 10 μL of Chloramine-T (1 μg/μL). The mixture was finger vortexed for 30s followed by addition of 100 μL-Cys (2 µg/µL), followed by another 30s of finger vortexing. The purification was carried out by reverse-phase chromatography. The samples were eluted at 37° C. using a curvilinear gradient of 0.1% trifluroacetic acid (TFA) in acetonitrile (19-63%) versus 0.1% aqueous TFA over 30 min at 1.5 ml.min^−1.
Male ICR mice (20-25 g) were administered either 2 μCi of PEG(2,000)-α-L-tyrosine-ω-AHPDP or mPEG(2,000)-α-L-tyrosine via tail vein injection (100 μL; i.v.). The mice were placed into metabolism cages and urine and feces were collected at the following time points (1, 2, 3, 4, 6, & 8 hr post-injection) (n=6).

- adsorption to hydroxyapatite (in words) [1]: limited adsorption
Molecule: 1-PEGmer: PEG-lysozyme multimer with one PEG(2,000)-α-AHPDP chain, separated by size exclusion [Example 1-PEGmer]

- percentage adsorbed to hydroxyapatite [1]: 100%
Molecule: 2-PEGmer: PEG-lysozyme multimer with two PEG(2,000)-α-AHPDP chains, separated by size exclusion [Example 2-PEGmer]

- percentage adsorbed to hydroxyapatite [1]: 100%
Molecule: 3-PEGmer: PEG-lysozyme multimer with three PEG(2,000)-α-AHPDP chains, separated by size exclusion [Example 3-PEGmer]

- adsorption half-life on hydroxyapatite [2]: around 1 min
Molecule: NCCC(O)(P(=O)(O)O)P(=O)(O)O [AHPDP, 3-amino-1-hydroxypropane-1,1-diphosphonic acid, reference compound]

Molecule: CC(O)(P(=O)(O)O)P(=O)(O)O [Etidronate]
- half-life in bone [3]: greater than 90 days

- adsorption to hydroxyapatite (in words) [1]: did not adsorb
Molecule: Native lysozyme: chicken egg white lysozyme, MW=14,300 Da, used as a model protein [reference compound]

Molecule: PEG(2,000)-α-methoxy-ω-L-tyrosine
- adsorption to hydroxyapatite (in words) ([2]; 0.1-1.0 mg/ml): did not show any adsorption
- average % [125I] captured (urine and feces, % of total counts injected) ([4]; 8 hour time course): 47.5%
- radiolabeled compound excreted in the urine ([4]; i.v.): greater than 95%

Molecule: PEG(2,000)-α-tyrosine-ω-AHPDP [PEG(2,000)-α-L-tyrosine-ω-AHPDP]
- adsorption half-life on hydroxyapatite [2]: 19 min
- average % [125I] captured (urine and feces, % of total counts injected) ([4]; 8 hour time course): 7.7%
- [125I] retained in the body versus mPEG(2,000)-α-L-tyrosine (in words) ([4]; i.v., 8-hour period): significantly greater percentage
- fold lower percentage of [125I] captured than mPEG(2,000)-α-L-tyrosine ([4]; i.v., 8 hour time course): 5 fold
- radiolabeled compound excreted in the urine ([4]; i.v.): ~95%

- adsorption half-life on hydroxyapatite [2]: 45 min
Molecule: PEG(5,000)-α-amine-ω-AHPDP
